Laboratory results published in patent EP0369035A1, “AGENT FOR TREATING PANCREATITIS OR THE LIKE” (priority 1988, dated 1989).

Tests used:
human plasma kallikrein = biological target: T1, human plasma kallikrein (Homo sapiens, UniProt P03952); experiment: Anti-plasma kallikrein activity: inhibition of S-2302 degradation; assay type: biochemical; conditions: substrate S-2302, 37°C, pH 7.8; read-out: Plasma kallikrein S-2302 (I50)
T1 construct: 50 µl of 0.12 units/ml human plasma kallikrein solution
T1 sequence (P03952 391-638 limits assumed): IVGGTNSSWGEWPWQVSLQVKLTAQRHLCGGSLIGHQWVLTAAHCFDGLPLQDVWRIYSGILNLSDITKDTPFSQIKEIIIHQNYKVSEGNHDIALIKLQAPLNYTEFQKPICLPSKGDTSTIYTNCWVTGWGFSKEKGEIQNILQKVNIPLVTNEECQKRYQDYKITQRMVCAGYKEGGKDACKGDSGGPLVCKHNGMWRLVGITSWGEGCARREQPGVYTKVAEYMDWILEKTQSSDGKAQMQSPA
T1 sequence (P03952 20-390 partner limits assumed): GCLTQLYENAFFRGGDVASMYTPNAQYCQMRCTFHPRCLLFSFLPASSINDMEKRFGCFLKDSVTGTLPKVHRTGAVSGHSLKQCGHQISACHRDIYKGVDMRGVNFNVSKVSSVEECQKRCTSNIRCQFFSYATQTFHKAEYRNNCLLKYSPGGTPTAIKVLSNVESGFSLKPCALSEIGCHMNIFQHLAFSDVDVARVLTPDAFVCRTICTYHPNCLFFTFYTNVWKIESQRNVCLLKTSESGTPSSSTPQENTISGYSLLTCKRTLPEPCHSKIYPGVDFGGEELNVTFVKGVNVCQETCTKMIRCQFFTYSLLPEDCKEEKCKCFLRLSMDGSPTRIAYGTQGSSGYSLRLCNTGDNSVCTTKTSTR
Procedure: 2) Assay of anti-plasma kallikrein activity Assay method of inhibition of S-2302 degradation
(§1) The test substance was dissolved in a 0.05 M Tris-HC1 (pH 7.8) buffer to make a total volume of 400 µl, and 50 µl of a 2 mM S-2302 solution was added to the solution. After incubation at 37°C for 5 minutes in an incubator, an addition of 50 µl of 0.12 units/ml human plasma kallikrein solution, and incubation at 37°C for 5 minutes, the reaction was terminated by an addition of 50 µl of 50% acetic acid.

human urokinase = human urokinase (Homo sapiens, UniProt P00749); experiment: Anti-urokinase activity: inhibition of S-2444 degradation; assay type: biochemical; conditions: substrate S-2444, 37°C, pH 8.8; read-out: Urokinase S-2444 (I50)
Procedure: 3) Assay of anti-urokinase activity Assay method of inhibition of S-2444 degradation
as §1, with “8.8)” for “7.8)”, “1” for “2”, “S-2444” for “S-2302”, “mixture.” for “solution.”, “500” for “0.12”, “urokinase” for “plasma kallikrein”

[1] = system: experimental pancreatitis; experiment: Effect on experimental pancreatitis (sodium taurochorate + trypsin into the common bile duct), survival ratio; assay type: in vivo, SD-rats; parameters: Effect on experimental pancreatitis (100 mg/kg p.o.) After 24 hours / Effect on experimental pancreatitis (100 mg/kg p.o.) After 48 hours / Effect of existing control drug on experimental pancreatitis After 24 hours: unit not given here; conditions: survival ratio, 50 μg/kg/min x 80 min, rat
Description: [II] Effect on experimental pancreatitis
SD-rats, body weight of about 200 g were, starved overnight, and 10 to 24 animals were used in one group. Sodium pentobarbital was intraperioneally administered to anesthetize each rat, and then a cannula was inserted to the femoral vein for the administration of the test substance. After abdominal surgery, the bile duct was blocked at a part thereof proximate to the liver, by a clip, a polyethylene tube was inserted to the common bile duct at a part thereof most proximate to the duodenum, and 0.1 ml of solution containing 2 mg sodium taurochorate and 1000 U trypsin dissolved in physiological saline was injected retrogrodely. After removal of the clip and tube, the common bile duct was ligated and the abdomen was closed. Note, the test substance was dissolved in an injective 5% glucose solution, and in the case of a continuous infusion, the solution was administered over 80 minutes starting from 10 minutes before the generation of pancreatitis. In the case of oral administration, the test substance was administered through an oral catheter 30 minutes before the generation of pancreatitis. After 24 hours and 48 hours from the generation of pancreatitis, the survival ratio of the animals was calculated and compared with a control group.

in vivo = conditions: mouse, intravenous, ICR male mice, up-and-down method, read-out: Acute toxicity (LD50)
Procedure: ICR male mice 5 to 10 weeks old were used. The test substance was dissolved in a 5% dimethylsulfoxide aqueous solution, and the solution was intravenously administered in an amount of 0.1 to 0.2 ml/10 g body weight. An LD50 value was calculated by up-and-down method.

[2] = Measurement of half life in blood; assay type: in vivo; conditions: rat, iv; administered to the tail vein, SD-rats, plasma, HPLC
Procedure: [VI] Measurement of half life in blood
SD-rats 6 to 7 weeks old were used. The test substance was dissolved in an injective 5% glucose solution and administered to the tail vein. After the administration, blood samples were periodically obtained from the great vein and placed into heparinized test tubes. Plasma was separated by centrifugation and the test substance was extracted with ethyl acetate. After removal of the solvent, the residue was dissolved in 200 µl of methanol, and analyzed by high performance liquid chromatography. From the change of the concentration of the test substance in blood with time, a half life thereof in blood was calculated.

bovine factor Xa = biological target: T2, bovine factor Xa (Bos taurus, UniProt P00743); experiment: Anti-FXa activity: inhibition of S-2222 degradation; assay type: biochemical; conditions: Table 3-2, existing control drugs; substrate printed as S-2238; read-out: FXa S-2238 (I50)
T2 construct: 0.05 ml of 0.3 vial/ml bovine factor Xa
T2 sequence (P00743 234-492 limits assumed): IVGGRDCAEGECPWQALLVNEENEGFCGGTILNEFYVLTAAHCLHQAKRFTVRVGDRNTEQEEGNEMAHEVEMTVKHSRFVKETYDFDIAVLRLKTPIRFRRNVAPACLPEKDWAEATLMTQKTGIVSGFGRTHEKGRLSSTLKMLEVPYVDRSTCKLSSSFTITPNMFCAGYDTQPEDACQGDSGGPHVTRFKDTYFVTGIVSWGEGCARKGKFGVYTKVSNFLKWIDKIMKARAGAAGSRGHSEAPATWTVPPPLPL
T2 sequence (P00743 41-180 partner limits assumed): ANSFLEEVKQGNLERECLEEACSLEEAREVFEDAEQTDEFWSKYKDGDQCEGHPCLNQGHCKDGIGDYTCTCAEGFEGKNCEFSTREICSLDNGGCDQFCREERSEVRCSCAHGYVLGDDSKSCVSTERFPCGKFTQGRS

N=C(N)c1ccc2cc(OC(=O)c3ccc(N=C(N)N)cc3)ccc2c1 [FUT-175, nafamostat mesilate, reference compound]
IC50 (human plasma kallikrein): 80 nM
IC50 (human urokinase): 10 nM
Effect of existing control drug on experimental pancreatitis After 24 hours [1]: 33.3
LD50 (in vivo): 24 mg/kg
half-life [2]: 2 to 3 min
IC50 (bovine factor Xa): 5800 nM
